# In patent publication US20140135310A1, “SULPHONAMIDE DERIVATIVES OF ALICYCLIC AMINES FOR THE TREATMENT OF CENTRAL NERVOUS SYSTEM DISEASES” (Adamed Sp. z o.o., priority 2011, published 2014):
# Like-named read-outs stand apart in the source and are kept apart here.
# Assays:
# [1] = biological target: 5-HT2A serotoninergic receptors (Homo sapiens, UniProt P28223); experiment: Cellular functional assay, 5-HT2A serotoninergic receptors; format: cell-based
# Protocol: (§1) The results are expressed as a percent of control specific agonist response ((measured specific response/control specific agonist response)×100) obtained in the presence of the test compounds.
# (§2) The EC50 values (concentration producing a half-maximal specific response) and IC50 values (concentration causing a half-maximal inhibition of the control specific agonist response) were determined by non-linear regression analysis of the concentration-response curves generated with mean replicate values using Hill equation curve fitting (Y=D+[(A−D)/(1+(C/C50)nH)], where Y=specific response, D=minimum specific response, A=maximum specific response, C=compound concentration, and C50=EC50 or IC50, and nH=slope factor).
# (§3) For the antagonists, the apparent dissociation constants (Kb) were calculated using the modified Cheng Prusoff equation (Kb=IC50/(1+(A/EC50A)), where A=concentration of reference agonist in the assay, and EC50A=EC50 value of the reference agonist).
# [2] = biological target: T1, serotonin transporter (SERT) (Homo sapiens, UniProt P31645); experiment: Radioligand binding assay, serotonin transporter (SERT); settings: for inhibition at 1 µM / SERT [%]: binding assay, test compound 1×10^−6 M
# T1 construct: expressed in transfected cells; host or cells: CHO cells
# Outline: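 Radioligand competition binding with scintillation detection; specific binding is total minus binding under excess unlabelled ligand. Reported as % of control specific binding or % inhibition; IC50 from Hill-equation non-linear regression of competition curves, and Ki via Cheng-Prusoff using radioligand concentration and Scatchard-derived KD.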
# [3] = biological target: 5-HT7 serotoninergic receptors (Homo sapiens, UniProt P34969); experiment: Cellular functional assay, 5-HT7 serotoninergic receptors; format: cell-based; settings: for 5-HT7 ag [%]: agonist mode, percent of control specific agonist response; for 5-HT7 antag [%]: antagonist mode
# Protocol: as §1
# as §2, with “factor). This analysis was performed using a software developed at Cerep (Hill software) and validated by comparison with data generated by the commercial software SigmaPlot® 4.0 for Windows® (© 1997 by SPSS Inc.).” for “factor).”
# as §3
# [4] = biological target: T2, 5-HT1A receptor (rat hippocampus) (Rattus norvegicus, UniProt P19327); experiment: Radioligand binding assay, serotoninergic 5-HT1A receptors; settings: binding assay result in %, Table 5a
# T2 construct: hippocampus; from tissue; host or cells: rat hippocampus
# T2 sequence (P19327 1-422): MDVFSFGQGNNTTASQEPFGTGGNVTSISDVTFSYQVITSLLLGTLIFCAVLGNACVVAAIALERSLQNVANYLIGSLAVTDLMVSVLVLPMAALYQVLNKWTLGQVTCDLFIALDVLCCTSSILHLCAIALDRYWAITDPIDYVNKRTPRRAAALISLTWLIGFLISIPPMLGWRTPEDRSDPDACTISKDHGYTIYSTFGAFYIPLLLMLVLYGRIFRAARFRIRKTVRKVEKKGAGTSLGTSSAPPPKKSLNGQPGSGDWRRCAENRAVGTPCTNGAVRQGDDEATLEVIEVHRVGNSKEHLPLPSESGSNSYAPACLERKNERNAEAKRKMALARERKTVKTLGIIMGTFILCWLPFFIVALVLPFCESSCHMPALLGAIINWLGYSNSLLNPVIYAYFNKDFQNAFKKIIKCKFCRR
# [5] = test system: α1 adrenergic receptors (rat cerebral cortex); experiment: Radioligand binding assay, adrenergic α1 receptors; settings: test compound 1×10^−6 M
# Outline: (§4)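 Values derive from radioligand displacement, with non-specific binding defined by excess cold ligand and detection by scintillation. Hill-fit IC50s were converted to Ki via Cheng-Prusoff using Scatchard-derived Kd; percent inhibition of control specific binding also reported.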
# M3 muscarinic receptors = biological target: T3, M3 muscarinic receptors (Homo sapiens, UniProt P20309); experiment: Radioligand binding assay, muscarinic M3 receptors; settings: test compound 1×10^−6 M
# T3 construct: expressed in transfected cells; host or cells: CHO cells
# Outline: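 Radioligand competition binding, detected by scintillation counting; non-specific binding defined with excess unlabelled ligand. Results given as % inhibition of control specific binding; IC50 from Hill-equation fit of competition curves, Ki via Cheng-Prusoff with radioligand KD from Scatchard plot.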
# 5-HT7 receptor = biological target: T4, 5-HT7 receptor (Homo sapiens, UniProt P34969); experiment: Radioligand binding assay, serotoninergic 5-HT7 receptors; settings: binding assay result in %, Table 5a
# T4 construct: purchased PerkinElmer
# Outline: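 Competition binding at human 5-HT7 receptors with a radioligand, detected by scintillation counting; non-specific binding was defined with excess unlabelled ligand. IC50 came from Hill-equation fits of competition curves, and Ki from Cheng–Prusoff using radioligand concentration and Scatchard-derived KD.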
# [6] = biological target: 5-HT6 serotoninergic receptors (Homo sapiens, UniProt P50406); experiment: Cellular functional assay, 5-HT6 serotoninergic receptors; format: cell-based; settings: for 5-HT6 ag [%]: agonist mode, percent of control specific agonist response
# Protocol: as §1
# as §2, with “factor). This analysis was performed using a software developed at Cerep (Hill software) and validated by comparison with data generated by the commercial software SigmaPlot® 4.0 for Windows® (© 1997 by SPSS Inc.).” for “factor).”
# as §3
# σ receptors = experiment: Radioligand binding assay, σ receptors; settings: rat cerebral cortex, [3H]DTG 8 nM
# Outline: as §4
# [7] = agonist mode, percent of control specific agonist response
# T1 sequence (P31645 whole entry): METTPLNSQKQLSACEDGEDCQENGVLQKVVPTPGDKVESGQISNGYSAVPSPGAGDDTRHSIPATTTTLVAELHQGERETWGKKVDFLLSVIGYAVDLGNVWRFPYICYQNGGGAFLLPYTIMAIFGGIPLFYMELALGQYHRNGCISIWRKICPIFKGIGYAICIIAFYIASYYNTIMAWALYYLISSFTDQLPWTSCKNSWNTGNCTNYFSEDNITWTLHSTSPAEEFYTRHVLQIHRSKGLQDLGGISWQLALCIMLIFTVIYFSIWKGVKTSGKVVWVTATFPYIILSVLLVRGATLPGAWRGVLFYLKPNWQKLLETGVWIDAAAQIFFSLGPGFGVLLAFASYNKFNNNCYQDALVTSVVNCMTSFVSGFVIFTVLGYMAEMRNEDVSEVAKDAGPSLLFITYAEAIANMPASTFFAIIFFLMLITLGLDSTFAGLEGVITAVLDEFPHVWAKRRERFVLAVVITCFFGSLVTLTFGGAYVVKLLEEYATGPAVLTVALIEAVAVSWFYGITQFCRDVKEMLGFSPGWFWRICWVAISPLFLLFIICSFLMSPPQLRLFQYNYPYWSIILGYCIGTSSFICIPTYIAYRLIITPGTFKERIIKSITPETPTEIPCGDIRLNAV
# T3 sequence (P20309 whole entry): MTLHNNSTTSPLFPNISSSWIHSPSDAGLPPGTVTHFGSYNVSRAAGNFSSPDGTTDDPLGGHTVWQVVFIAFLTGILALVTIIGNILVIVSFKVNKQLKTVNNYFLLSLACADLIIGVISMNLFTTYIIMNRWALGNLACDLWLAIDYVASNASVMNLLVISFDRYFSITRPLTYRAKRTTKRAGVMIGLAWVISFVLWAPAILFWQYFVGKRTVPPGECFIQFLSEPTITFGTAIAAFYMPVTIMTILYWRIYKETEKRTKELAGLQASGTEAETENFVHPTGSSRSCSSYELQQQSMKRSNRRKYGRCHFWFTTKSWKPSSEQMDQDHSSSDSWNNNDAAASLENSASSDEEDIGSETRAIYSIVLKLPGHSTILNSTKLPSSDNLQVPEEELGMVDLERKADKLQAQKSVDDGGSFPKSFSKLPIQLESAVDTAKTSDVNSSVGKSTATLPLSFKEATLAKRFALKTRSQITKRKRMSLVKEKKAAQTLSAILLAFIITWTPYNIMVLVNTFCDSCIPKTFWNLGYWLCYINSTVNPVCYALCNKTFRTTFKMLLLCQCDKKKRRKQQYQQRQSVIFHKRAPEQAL
# 5-HT6 serotoninergic receptors, sequence (P50406 whole entry): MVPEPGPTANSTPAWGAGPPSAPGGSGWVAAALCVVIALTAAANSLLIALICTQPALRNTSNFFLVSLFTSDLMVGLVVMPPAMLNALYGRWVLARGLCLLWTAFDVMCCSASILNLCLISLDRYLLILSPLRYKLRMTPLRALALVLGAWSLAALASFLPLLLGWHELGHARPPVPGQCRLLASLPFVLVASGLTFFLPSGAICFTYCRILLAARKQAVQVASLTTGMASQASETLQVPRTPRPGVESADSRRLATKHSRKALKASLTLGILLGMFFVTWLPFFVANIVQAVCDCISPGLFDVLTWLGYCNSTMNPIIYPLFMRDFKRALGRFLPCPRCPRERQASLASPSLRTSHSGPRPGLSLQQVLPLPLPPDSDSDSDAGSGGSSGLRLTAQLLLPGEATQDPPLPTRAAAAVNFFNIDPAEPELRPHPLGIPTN
# 5-HT7 serotoninergic receptors, sequence (P34969 whole entry): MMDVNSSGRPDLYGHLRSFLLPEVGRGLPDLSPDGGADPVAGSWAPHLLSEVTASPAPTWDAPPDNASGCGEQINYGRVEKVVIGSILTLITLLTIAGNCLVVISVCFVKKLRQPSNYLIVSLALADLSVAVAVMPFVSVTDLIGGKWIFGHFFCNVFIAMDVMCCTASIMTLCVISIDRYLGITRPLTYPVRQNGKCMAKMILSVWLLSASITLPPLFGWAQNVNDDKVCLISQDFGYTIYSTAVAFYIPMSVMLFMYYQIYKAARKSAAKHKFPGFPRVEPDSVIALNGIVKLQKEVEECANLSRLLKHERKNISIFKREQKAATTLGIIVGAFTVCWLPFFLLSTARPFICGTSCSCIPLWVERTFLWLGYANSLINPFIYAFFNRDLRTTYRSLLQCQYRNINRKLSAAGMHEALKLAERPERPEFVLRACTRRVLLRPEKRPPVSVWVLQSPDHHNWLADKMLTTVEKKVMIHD
# T4 sequence (P34969 whole entry): as above
# 5-HT2A serotoninergic receptors, sequence (P28223 whole entry): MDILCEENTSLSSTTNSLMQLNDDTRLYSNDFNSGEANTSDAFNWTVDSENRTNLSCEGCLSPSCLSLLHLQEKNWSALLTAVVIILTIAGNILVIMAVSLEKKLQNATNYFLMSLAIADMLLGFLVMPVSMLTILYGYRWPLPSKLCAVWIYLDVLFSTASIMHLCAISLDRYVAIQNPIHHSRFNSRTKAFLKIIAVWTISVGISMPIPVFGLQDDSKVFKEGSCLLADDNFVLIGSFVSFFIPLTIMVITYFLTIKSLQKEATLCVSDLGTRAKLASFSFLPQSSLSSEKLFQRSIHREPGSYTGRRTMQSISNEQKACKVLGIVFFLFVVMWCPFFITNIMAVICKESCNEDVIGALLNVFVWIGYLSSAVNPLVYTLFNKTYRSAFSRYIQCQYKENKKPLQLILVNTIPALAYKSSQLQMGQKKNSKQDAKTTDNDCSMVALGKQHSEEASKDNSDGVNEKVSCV
compound,measurement,setting,value
"O=S(=O)(N[C@@H]1CCN(CCCc2noc3cc(F)ccc23)C1)c1ccc2ccccc2c1 [Compound 206, N-[(3R)-1-[3-(6-Fluoro-1,2-benzoxazol-3-yl)propyl]pyrrolidin-3-yl]naphthalene-2-sulphonamide]",5-HT2A ag [%],[1],−1%
same,inhibition at 1 µM,[2],62%
same,5-HT7 ag [%],[3],−1%
same,inhibition at 1 µM,[4],68%
same,α1 [%],[5],93%
same,inhibition at 1 µM,M3 muscarinic receptors,9%
same,inhibition at 1 µM,5-HT7 receptor,100%
same,5-HT6 ag [%],[6],−2%
"O=S(=O)(NC1CCN(CCCc2noc3cc(F)ccc23)C1)c1cc2ccc(F)cc2s1 (stereo not shown) [Compound 234, 6-Fluoro-N-[1-[3-(6-fluoro-1,2-benzoxazol-3-yl)propyl]pyrrolidin-3-yl]benzothiophene-2-sulphonamide]",5-HT2A ag [%],[1],1%
same,inhibition at 1 µM,[2],65%
same,5-HT7 ag [%],[3],0%
same,inhibition at 1 µM,[4],45%
same,α1 [%],[5],92%
same,inhibition at 1 µM,M3 muscarinic receptors,17%
same,inhibition at 1 µM,5-HT7 receptor,97%
same,5-HT6 ag [%],[6],−1%
"O=S(=O)(N[C@@H]1CCN(CCCc2noc3cc(F)ccc23)C1)c1ccc2cc(Cl)ccc2c1 [Compound 200, 6-Chloro-N-[(3R)-1-[3-(6-fluoro-1,2-benzoxazol-3-yl)propyl]pyrrolidin-3-yl]naphthalene-2-sulphonamide]",5-HT2A ag [%],[1]; [7],0%
same,inhibition at 1 µM,[2],74%
same,5-HT7 ag [%],[3],−1%
same,inhibition at 1 µM,[4],50%
same,α1 [%],[5],85%
same,inhibition at 1 µM,M3 muscarinic receptors,3%
same,inhibition at 1 µM,5-HT7 receptor,93%
same,5-HT6 ag [%],[6],−2%
"COc1ccc2cc(S(=O)(=O)N[C@@H]3CCN(CCCc4noc5cc(F)ccc45)C3)ccc2c1 [Compound 230, N-[(3R)-1-[3-(6-Fluoro-1,2-benzoxazol-3-yl)propyl]pyrrolidin-3-yl]-6-methoxy-naphthalene-2-sulphonamide]",5-HT2A ag [%],[1]; [7],−2%
same,inhibition at 1 µM,[2],75%
same,inhibition at 1 µM,[4],77%
same,α1 [%],[5],83%
same,σ [%],σ receptors,90%
same,inhibition at 1 µM,M3 muscarinic receptors,15%
same,inhibition at 1 µM,5-HT7 receptor,87%
same,5-HT6 ag [%],[6],−1%
"Cc1c(S(=O)(=O)N[C@@H]2CCN(CCCc3noc4cc(F)ccc34)C2)sc2ccc(Cl)cc12 [Compound 204, 5-Chloro-N-[(3R)-1-[3-(6-fluoro-1,2-benzoxazol-3-yl)propyl]pyrrolidin-3-yl]-3-methyl-benzothiophene-2-sulphonamide]",5-HT2A ag [%],[1]; [7],−1%
same,inhibition at 1 µM,[2],70%
same,inhibition at 1 µM,[4],71%
same,α1 [%],[5],76%
same,σ [%],σ receptors,90%
same,inhibition at 1 µM,M3 muscarinic receptors,17%
same,inhibition at 1 µM,5-HT7 receptor,87%
same,5-HT6 ag [%],[6],−1%
"N-[[1-[2-[(2,2-Dimethyl-3H-benzofuran-7-yl)oxy]ethyl]azetidin-3-yl]methyl]-3-hydroxy-benzenesulphonamide [Compound 111]",5-HT2A ag [%],[1]; [7],5%
same,5-HT2A antag [%],[1]; antagonist mode,58%
same,SERT [%],[2],15%
same,5-HT7 ag [%],[3],24%
same,5-HT7 antag [%],[3],55%
same,5-HT1A [%],[4],99%
same,α1 [%],[5],68%
same,σ [%],σ receptors,81%
same,M3 [%],M3 muscarinic receptors,14%
same,5-HT7 [%],5-HT7 receptor,100%
"Cc1ccc2sc(S(=O)(=O)N[C@@H]3CCN(CCCc4noc5cc(F)ccc45)C3)cc2c1 [Compound 228, N-[(3R)-1-[3-(6-Fluoro-1,2-benzoxazol-3-yl)propyl]pyrrolidin-3-yl]-5-methyl-benzothiophene-2-sulphonamide]",5-HT2A ag [%],[1]; [7],1%
same,inhibition at 1 µM,[2],61%
same,5-HT7 ag [%],[3],0%
same,inhibition at 1 µM,[4],27%
same,α1 [%],[5],88%
same,inhibition at 1 µM,M3 muscarinic receptors,12%
same,inhibition at 1 µM,5-HT7 receptor,92%
same,5-HT6 ag [%],[6],−2%
"O=S(=O)(N[C@H]1CCN(CCCc2noc3cc(F)ccc23)C1)c1cc2ccccc2s1 [Compound 197, N-[(3S)-1-[3-(6-Fluoro-1,2-benzoxazol-3-yl)propyl]pyrrolidin-3-yl]benzo-thiophene-2-sulphonamide]",5-HT2A ag [%],[1],1%
same,inhibition at 1 µM,[2],58%
same,5-HT7 ag [%],[3],0%
same,inhibition at 1 µM,[4],56%
same,α1 [%],[5],93%
same,inhibition at 1 µM,M3 muscarinic receptors,26%
same,inhibition at 1 µM,5-HT7 receptor,101%
same,5-HT6 ag [%],[6],−1%
"O=S(=O)(N[C@@H]1CCN(CCCc2noc3cc(F)ccc23)C1)c1cc2ccccc2s1 [Compound 196, N-[(3R)-1-[3-(6-Fluoro-1,2-benzoxazol-3-yl)propyl]pyrrolidin-3-yl]benzo-thiophene-2-sulphonamide]",5-HT2A ag [%],[1],0%
same,Kb,"[1]; apparent dissociation constant, modified Cheng Prusoff equation, read-out: 5-HT2A antag Kb",8.3 nM
same,inhibition at 1 µM,[2],42%
same,5-HT7 ag [%],[3],0%
same,Kb,"[3]; apparent dissociation constant, modified Cheng Prusoff equation, read-out: 5-HT7 antag Kb",0.57 nM
same,inhibition at 1 µM,[4],54%
same,α1 [%],[5],95%
same,inhibition at 1 µM,M3 muscarinic receptors,11%
same,inhibition at 1 µM,5-HT7 receptor,101%
same,5-HT6 ag [%],[6],−2%
same,Kb,"[6]; apparent dissociation constant, modified Cheng Prusoff equation, read-out: 5-HT6 antag Kb",38 nM
"Cc1c(S(=O)(=O)N[C@H]2CCN(CCCc3noc4cc(F)ccc34)C2)sc2ccc(F)cc12 [Compound 203, 5-Fluoro-N-[(3S)-1-[3-(6-fluoro-1,2-benzoxazol-3-yl)propyl]pyrrolidin-3-yl]-3-methyl-benzothiophene-2-sulphonamide]",5-HT2A ag [%],[1]; [7],−1%
same,inhibition at 1 µM,[2],73%
same,5-HT7 ag [%],[3],0%
same,inhibition at 1 µM,[4],60%
same,α1 [%],[5],91%
same,inhibition at 1 µM,M3 muscarinic receptors,12%
same,inhibition at 1 µM,5-HT7 receptor,99%
same,5-HT6 ag [%],[6],−2%
"Cc1cccc(S(=O)(=O)NC2CCN(CCCc3c[nH]c4ccc(F)cc34)C2)c1 (stereo not shown) [Compound 78, N-[1-[3-(5-Fluoro-1H-indol-3-yl)propyl]pyrrolidin-3-yl]-3-methyl-benzenesulphonamide]",5-HT2A ag [%],[1],51%
same,5-HT2A antag [%],[1],−1%
same,inhibition at 1 µM,[2],101%
same,Ki,"[2]; read-out: Inhibition constants Ki for SERT, SERT",1 nM
same,inhibition at 1 µM,[4],99%
same,α1 [%],[5],39%
same,σ [%],σ receptors,70%
same,inhibition at 1 µM,M3 muscarinic receptors,5%
same,inhibition at 1 µM,5-HT7 receptor,89%
same,5-HT6 ag [%],[6],54%
"O=S(=O)(NC1CCN(CCOc2cccc3[nH]ccc23)CC1)c1ccccc1 [Compound 55, N-[1-[2-(1H-Indol-4-yloxy)ethyl]-4-piperidine]benzenesulphonamide]",5-HT2A ag [%],[1]; [7],−1%
same,SERT [%],[2],6%
same,5-HT7 ag [%],[3],5%
same,5-HT7 antag [%],[3],48%
same,5-HT1A [%],[4],96%
same,α1 [%],[5],51%
same,σ [%],σ receptors,37%
same,M3 [%],M3 muscarinic receptors,−1%
same,5-HT7 [%],5-HT7 receptor,96%
"Cc1c(S(=O)(=O)N[C@@H]2CCN(CCCc3noc4cc(F)ccc34)C2)sc2ccc(F)cc12 [Compound 202, 5-Fluoro-N-[(3R)-1-[3-(6-fluoro-1,2-benzoxazol-3-yl)propyl]pyrrolidin-3-yl]-3-methyl-benzothiophene-2-sulphonamide]",5-HT2A ag [%],[1]; [7],0%
same,inhibition at 1 µM,[2],58%
same,5-HT7 ag [%],[3],−3%
same,inhibition at 1 µM,[4],65%
same,α1 [%],[5],98%
same,inhibition at 1 µM,M3 muscarinic receptors,9%
same,inhibition at 1 µM,5-HT7 receptor,98%
same,5-HT6 ag [%],[6],1%
